Laboratory results from patent publication US20070021501A1, “Methods of treating epileptogenesis” (priority 2005, published 2007).
Where “and” joins values, the source holds several entries; their conditions need not be identical. Equal values may be shown once.

Experiments:
[1] = tested on: lithium-pilocarpine status epilepticus in the rat; assay: Mortality over the first 48 h after Li-pilo SE (Example 2); format: in vivo, Sprague-Dawley rats; conditions: DZP 2.5 mg/kg i.m.
Protocol: Adult male Sprague-Dawley rats provided by Janvier Breeding Center (Le Genest-St-lsle, France) were housed under controlled, uncrowded standard conditions at 20-22° C. (light/dark cycle, 7.00 a.m.-7.00 p.m. lights on), with food and water available ad libitum. All animal experimentation was performed in accordance with the rules of the European Communities Council Directive of Nov. 24, 1986 (86/609/EEC), and the French Department of Agriculture (License N^o 67-97).

[2] = tested on: lithium-pilocarpine model of temporal lobe epilepsy in the rat; assay: Latency to and frequency of spontaneous seizures, video recording (Example 2); format: in vivo, Sprague-Dawley rats; conditions: DZP 2.5 mg/kg i.m.
Protocol: The effects of DZP and the 4 doses of TC on epileptogenesis were investigated by daily video recording of the animals for 10 h per day. Video recording was performed for 4 weeks during which the occurrence of the first seizure was noted as well as the total number of seizures over the whole period. Animals were then taken off the video recording system and kept for 4 additional weeks in our animal facilities before they were sacrificed after a total period of 8 weeks of epilepsy.

[3] = tested on: lithium-pilocarpine model of temporal lobe epilepsy in the rat; assay: Quantification of cell densities (neuronal counting) 14 days after Li-pilo SE (Example 2); conditions: for number of neuronal cell bodies: DZP 2.5 mg/kg i.m., 14 days after li-pilo SE
Protocol: All rats received lithium chloride (3 meq/kg, i.p., Sigma, St Louis, Mo., U.S.A.) and about 20 h later, all animals received also methylscopolamine bromide (1 mg/kg, s.c., Sigma) that was administered to limit the peripheral effects of the convulsant. […] The effects of increasing doses of TC were studied in 5 groups of rats. […] The control group received vehicle instead of pilocarpine and TC.
For neuronal counting, animals were deeply anesthetized with 1.8 g/kg pentobarbital (Dolethal®, Vétoquinol, Lure, France). Brains were then removed and frozen. Serial 20 μm slices were cut in a cryostat, air-dried during several days before thionine staining. […] The grid of counting was placed on a well defined area of the cerebral structure of interest and counting was carried out with a microscopic enlargement of 200- or 400-fold defined for each single cerebral structure. Cell counts were performed twice on each side of three adjacent sections for each region by a single observer unaware of the animal's treatment. The number of cells obtained in the 12 counted fields in each cerebral structure was averaged. This procedure was used to minimize the potential errors that could result from double counting leading to overestimation of cell numbers. […] Counts involved only neurons with cell bodies larger than 10 μm. Cells with small cell bodies were considered as glial cells and were not counted.
For neuronal damage and epileptogenesis, statistical analysis between groups was performed by means of a one-way analysis of variance followed by a post-hoc Dunnett or Fisher test using the Statistica software.

[4] = tested on: lithium-pilocarpine model of temporal lobe epilepsy in the rat; assay: Mossy fiber sprouting in hippocampus, Timm staining (Example 1); format: in vivo; conditions: DZP (n=9)
Protocol: At 2 months after the onset of spontaneous recurrent seizures, mossy fiber sprouting was examined on rats in the chronic period exposed to the test compound or DZP and in 3 saline-saline rats. Animals were deeply anaesthetized and perfused transcardially with saline followed by 100 ml of 1.15% (w/v) Na2S in 0.1 M phosphate buffer, and 100 ml of 4% (v/v) formaldehyde in 0.1 M phosphate buffer. Brains were removed from skull, post-fixed in 4% formaldehyde during 3-5 h and 40 μm sections were cut on a sliding vibratome and mounted on gelatin-coated slides.
The following day, sections were developed in the dark in a 26° C. solution of 50% (w/v) arabic gum (160 ml), sodium citrate buffer (30 ml), 5.7% (w/v) hydroquinone (80 ml) and 10% (w/v) silver nitrate (2.5 ml) during 40-45 min. The sections were then rinsed with tap water at 40° C. during at least 45 min, rinsed rapidly with distilled water and allowed to dry. They were dehydrated in ethanol and coverslipped.
Mossy fiber sprouting was evaluated according to criteria previously described in dorsal hippocampus (Cavazos et al., 1991, J Neurosci 11:2795-2803.), which are follows: 0—no granules between the tips and crest of the DG; 1—sparse granules in the supragranular region in a patchy distribution between the tips and crest of DG; 2—more numerous granules in a continuous distribution between the tips and crest of DG; 3—prominent granules in a continuous pattern between tips and crest, with occasional patches of confluent granules between tips and crest; 4—prominent granules that form a confluent dense laminar band between tips and crest and 5—confluent dense laminar band of granules that extends into the inner molecular layer.

[5] = tested on: lithium-pilocarpine status epilepticus in the rat; assay: EEG patterns during and after Li-pilo SE (Example 1); format: in vivo; conditions: DZP 2 mg/kg i.m.; cortex and hippocampus
Protocol: Male Wistar rats weighing 225-250 g, provided by Janvier Breeding Center (Le Genest-St-lste, France) were housed under controlled standard conditions (light/dark cycle, 7.00 a.m.-7.00 p.m. lights on), with food and water available ad libitum. All animal experimentation was performed in accordance with the rules of the European Communities Council Directive of Nov. 24, 1986 (86/609/EEC), and the French Department of Agriculture (License N^o 67-97). For electrode implantation, rats were anesthetized by an i.p. injection of 2.5 mg/kg diazepam (DZP, Valium, Roche, France) and […] ketamine chlorhydrate (Imalgene 1000, Rhone Merrieux, France). Four single-contact recording electrodes were placed on the skull, over the parietal cortex, two on each side.
The bilateral EEG cortical activity was recorded during the whole duration of SE and behavioral changes were noted.
The effects of the test compound on the EEG and on the latency to occurrence of SRS were investigated by daily video recording of the animals for 10 h per day and the recording of the electrographic activity twice a week for 8 h.

[6] = tested on: lithium-pilocarpine model of temporal lobe epilepsy in the rat; assay: Quantification of cell densities in hippocampus, thalamus and cortex after Li-pilo SE (Example 1); format: in vivo; conditions: DZP
Protocol: Quantification of cell densities was performed at 6 days after SE on 8 pilo-DZP, 8 pilo-TC10, 7 pilo-TC30, 7 pilo-TC60, and 6 saline-saline rats.
Cell counts were performed twice in a blind manner and were the average of at least 3 values from 2 adjacent sections in each individual animal. Counts involved only cells larger than 10 μm, smaller ones being considered as glial cells.
For the comparison of the characteristics of SE in pilo-saline and pilo-test compound animals, a non-paired Student's t-test was used. The comparison between the number of rats seizing in both groups was performed by means of a Chi square test. For neuronal damage, statistical analysis between groups was performed using ANOVA followed by a Fisher's test for multiple comparisons using the Statview software (Fisher R A, 1946a, Statistical Methods for Research Workers (10th edition) Oliver & Boyd, Edinburgh; Fisher R A, 1946b, The Design of Experiments (4th edition) Oliver & Boyd, Edinburgh) Behavioral and EEG Characteristics of Lithium-pilocarpine Status Epilepticus

CN1C(=O)CN=C(c2ccccc2)c2cc(Cl)ccc21 [DZP, diazepam]
mortality over the first 48 h after SE ([1]; group devoted to cell counting at 14 days (4/11)): 36%
mortality over the first 48 h after SE ([1]; group devoted to latency to SRS and late cell counting (1/14)): 7%
frequency of spontaneous seizures over the four weeks of recording [2]: tendency to be higher
number of neuronal cell bodies ([3]; Amygdala Medial, dorsal anterior): 40.0 ± 2.5
number of neuronal cell bodies ([3]; Amygdala Medial, ventral posterior): 21.8 ± 2.4
number of neuronal cell bodies ([3]; Cerebral cortex Entorhinal, layer II, dorsal): 23.5 ± 0.7
number of neuronal cell bodies ([3]; Cerebral cortex Entorhinal, layer II, ventral): 21.7 ± 1.3
number of neuronal cell bodies ([3]; Cerebral cortex Entorhinal, layer III/IV, dorsal): 22.3 ± 0.5
number of neuronal cell bodies ([3]; Cerebral cortex Entorhinal, layer III/IV, ventral): 7.7 ± 2.3
number of neuronal cell bodies ([3]; Cerebral cortex Piriform, layer II, dorsal): 12.6 ± 4.2
number of neuronal cell bodies ([3]; Cerebral cortex Piriform, layer II, ventral): 3.6 ± 0.7
number of neuronal cell bodies ([3]; Cerebral cortex Piriform, layer III): 1.2 ± 1.2
neurons surviving ([3]; DZP, all parts of the entorhinal cortex (range), 14 days after SE): 27-81%
neuronal loss (drop out) compared to control rats ([3]; DZP, amygdala basolateral nucleus, 14 days after SE): 73%
neuronal damage compared to control rats ([3]; DZP, amygdala central nucleus, 14 days after SE): no neuronal damage
neuronal loss (drop out) compared to control rats ([3]; DZP, amygdala medial dorsal anterior nucleus, 14 days after SE): 53%
neuronal loss compared to control rats ([3]; DZP, amygdala medial ventral posterior nucleus, 14 days after SE): 38%
neuronal damage compared to control rats ([3]; DZP, dentate gyrus granule cell layer, 14 days after SE): did not show overt damage
neuronal damage compared to control saline-treated rats ([3]; DZP, dorsal entorhinal cortex layer II, 14 days after SE): 18%
neuronal damage compared to control saline-treated rats ([3]; DZP, dorsal entorhinal cortex layers III-IV, 14 days after SE): 24%
neuronal loss compared to control rats ([3]; DZP, hilus of dentate gyrus, 14 days after SE): 65% and 66%
neuronal loss (drop out) compared to control rats ([3]; DZP, hippocampus CA1 pyramidal cell layer, 14 days after SE): 85%
neuronal loss compared to control rats ([3]; DZP, hippocampus CA3 region, 14 days after SE): 40%
neuronal loss compared to control saline-treated rats ([3]; DZP, piriform cortex dorsal layer II, 14 days after SE): 66%
neuronal loss compared to control saline-treated rats ([3]; DZP, piriform cortex layer III, 14 days after SE): 94%
neuronal loss compared to control saline-treated rats ([3]; DZP, piriform cortex ventral layer II, 14 days after SE): 89%
neuronal loss (drop out) compared to control rats ([3]; DZP, thalamus central medial nucleus, 14 days after SE): 34%
neuronal loss (drop out) compared to control rats ([3]; DZP, thalamus dorsolateral medial dorsal nucleus, 14 days after SE): 40%
neuronal loss (drop out) compared to control rats ([3]; DZP, thalamus mediodorsal central nucleus, 14 days after SE): 18%
neuronal loss (drop out) compared to control rats ([3]; DZP, thalamus mediodorsal lateral nucleus, 14 days after SE): 24%
neuronal loss compared to control rats ([3]; DZP, thalamus mediodorsal nucleus, 14 days after SE): 49%
neuronal loss compared to control rats ([3]; DZP, thalamus ventral lateral division of the dorsolateral nucleus, 14 days after SE): 90%
neuronal damage compared to control saline-treated rats ([3]; DZP, ventral entorhinal cortex layer II, 14 days after SE): 22% and 19%
neuronal damage compared to control saline-treated rats ([3]; DZP, ventral entorhinal cortex layers III/IV, 14 days after SE): 74% and 73%
number of neuronal cell bodies ([3]; Hippocampus CA1 area): 10.9 ± 1.9
number of neuronal cell bodies ([3]; Hippocampus CA3 area): 31.3 ± 2.9
number of neuronal cell bodies ([3]; Hippocampus Hilus): 33.5 ± 3.0
number of neuronal cell bodies ([3]; Thalamus Central medial): 74.2 ± 7.4
number of neuronal cell bodies ([3]; Thalamus Dorsolateral, medial, dorsal): 61 ± 6.3
number of neuronal cell bodies ([3]; Thalamus Dorsolateral, ventral lateral): 9.7 ± 2.5
number of neuronal cell bodies ([3]; Thalamus Mediodorsal central): 26.3 ± 1.8
number of neuronal cell bodies ([3]; Thalamus Mediodorsal lateral): 19.6 ± 0.8
number of neuronal cell bodies ([3]; Thalamus Mediodorsal medial): 16.4 ± 1.9
mean Timm score in the upper blade of the dentate gyrus [4]: 2.8±0.8
EEG by 6-7 h of SE [5]: spiking activity was still present in the cortex and the hippocampus
damage compared to saline-saline rats ([6]; dentate gyrus granule cell layer): did not show visible damage
damage compared to saline-saline rats ([6]; dorsal entorhinal cortex layer II): 9%
damage compared to saline-saline rats ([6]; dorsal entorhinal cortex layers III-IV): 15%
cell loss compared to saline-saline rats ([6]; hilus of dentate gyrus): 73%
cell loss compared to saline-saline rats ([6]; hippocampus CA1 pyramidal cell layer): 70% and 75%
cell loss compared to saline-saline rats ([6]; hippocampus CA3a): 54%
cell loss compared to saline-saline rats ([6]; hippocampus CA3b): 31%
cell loss compared to saline-saline rats ([6]; lateral thalamic nucleus): 91%
cell loss compared to saline-saline rats ([6]; mediodorsal thalamic nucleus): 56%
cell loss compared to saline-saline rats ([6]; piriform cortex layer II): 53%
cell loss compared to saline-saline rats ([6]; piriform cortex layers III-IV): total
damage compared to saline-saline rats ([6]; ventral entorhinal cortex layer II): totally preserved
cell loss compared to saline-saline rats ([6]; ventral entorhinal cortex layers III-IV): 44%
